One assay relates to PI 3-kinase immunoprecipitated from human platelets. Kind of assay: In vitro PI 3-kinase assay (32P incorporation into PI). The class given is biochemical. As to conditions: PI 3-kinase from human platelets, PI substrate. On the procedure: The effect of TGX-25, TGX-33, TGX-37, TGX-40, TGX-41, TGX-57, TGX-84, TGX-90, TGX-93, TGX-98, TGX-99, TGX-101, TGX-106, TGX-107, TGX-108, TGX-109, TGX-111, TGX-112, TGX-113, TGX-115, TGX-120, TGX-121, TGX-123, TGX-124, TGX-126, TGX-127, TGX-130 or TGX-131on PI 3-kinase activity was determined using an in vitro PI 3-kinase assay. This assay was performed using PI 3-kinase immunoprecipitated from human platelets as the enzyme and PI as the substrate. The PI 3-kinase activity was quantitated by measuring the enzymatic incorporation of [^32P] into PI, forming PI([^32P]-3)P, as previously described (Susa et al., 1992, The Journal of Biological Chemistry 267(32):22951-22956.
Washed human platelets were lysed in Triton X-100 lysis buffer (10 mM Tris, pH 7.4, 1% Triton X-100, 2 mM EDTA, 1 mM PMSF) for 30 minutes. The Triton X-100 insoluble fraction was removed by centrifugation of the cell lysates at 15,000 g for 10 minutes. PI 3-kinase was immunoprecipitated by mixing 500 μg of the cell lysate with 1 μg of a rabbit anti-rat antibody against the p85/110 form of PI 3-kinase and 30 μl of 50% Protein A-sepharose beads for 2 hours at 4° C. The Protein A-sepharose-bound PI 3-kinase was isolated by pelleting the beads at 15,000 g for 5 seconds, and washing three times with ice-old Triton X-100 lysis buffer followed by four washes with PI 3-kinase assay buffer (20 mM HEPES, pH 7.4, 1 mM EGTA, 5 mM MgCl2).
PI stored in CHCl3 was dried under N2, resuspended in the lipid buffer (50 mM HEPES, pH 7.2, 1 mM EDTA) at a final concentration of 330 μg/ml, and sonicated for 6 minutes on ice. PI([^32P]-3)P was generated by mixing the immunoprecipitated PI 3-kinase for 20 minutes with 40 μl of the PI, 10 μl of ATP (1 mM) and ^32P-r-ATP (0.5 μCi, 1 μCi/nmol), 10 μl of 10× kinase buffer, in a final assay volume of 100 μl adjusted with H2O. TGX-25, TGX-33, TGX-37, TGX-40, TGX-41, TGX-57, TGX-84, TGX-90, TGX-93, TGX-98, TGX-99, TGX-101, TGX-106, TGX-107, TGX-108, TGX-109, TGX-111, TGX-112, TGX-113, TGX-115, TGX-120, TGX-121, TGX-123, TGX-124, TGX-126, TGX-127, TGX-130 or TGX-131 was preincubated with the PI 3-kinase for 5 minutes prior to the addition of ATP. The assay was terminated with 100 μl of 1 N HCl, and the PI([^32P]-3)P product extracted with 200 μl chloroform:methanol (1:1) and 500 μl 2 M KCl. The PI([^32P]-3)P in the chloroform phase was resolved by thin layer chromatography using a solvent system containing CHCl3:MeOH:HAC:H2O (43:38:5:7) (v:v:v:v), and visualized by autoradiography. The PI([^32P]-3)P spots were then scraped off from the TLC plates, deacylated with 1 ml methylamine:butanol:methanol (42:9:47) (v:v:v) for 4 hours at 53° C., and quantitated using a liquid scintillation counter (LKB 1209 RackBETA).
T1 sequence (P48736 whole entry, species assumed): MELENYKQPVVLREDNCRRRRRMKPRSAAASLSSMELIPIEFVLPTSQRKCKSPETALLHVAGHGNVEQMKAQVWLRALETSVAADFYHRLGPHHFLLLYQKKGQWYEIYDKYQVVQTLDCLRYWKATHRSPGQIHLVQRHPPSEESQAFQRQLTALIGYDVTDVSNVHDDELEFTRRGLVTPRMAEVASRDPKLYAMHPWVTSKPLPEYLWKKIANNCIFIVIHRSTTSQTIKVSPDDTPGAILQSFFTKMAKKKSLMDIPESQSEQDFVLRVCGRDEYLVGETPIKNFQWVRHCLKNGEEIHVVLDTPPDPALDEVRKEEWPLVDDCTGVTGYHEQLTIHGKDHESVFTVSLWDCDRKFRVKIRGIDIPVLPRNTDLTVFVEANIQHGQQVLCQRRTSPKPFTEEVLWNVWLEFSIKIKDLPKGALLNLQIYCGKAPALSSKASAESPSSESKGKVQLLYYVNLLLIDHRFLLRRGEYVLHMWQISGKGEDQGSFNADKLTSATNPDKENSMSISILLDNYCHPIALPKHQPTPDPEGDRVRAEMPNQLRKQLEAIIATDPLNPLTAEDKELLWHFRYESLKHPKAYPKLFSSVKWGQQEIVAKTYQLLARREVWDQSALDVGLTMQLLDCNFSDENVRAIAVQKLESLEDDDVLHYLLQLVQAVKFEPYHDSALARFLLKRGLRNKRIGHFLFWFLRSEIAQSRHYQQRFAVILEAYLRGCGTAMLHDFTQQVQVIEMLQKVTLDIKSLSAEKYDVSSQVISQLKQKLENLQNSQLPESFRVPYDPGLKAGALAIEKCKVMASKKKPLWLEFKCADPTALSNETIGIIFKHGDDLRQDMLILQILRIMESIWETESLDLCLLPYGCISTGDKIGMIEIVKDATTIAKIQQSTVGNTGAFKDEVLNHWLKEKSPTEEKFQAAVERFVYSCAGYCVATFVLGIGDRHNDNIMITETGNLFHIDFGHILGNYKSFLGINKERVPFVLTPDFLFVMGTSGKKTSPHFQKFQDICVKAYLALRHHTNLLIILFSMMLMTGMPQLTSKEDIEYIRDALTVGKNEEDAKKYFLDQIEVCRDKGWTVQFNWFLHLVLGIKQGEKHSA
The term IC50 denotes the concentration needed to halve the response being measured. As to `Cc1cc(Nc2ccc(O)cc2C)c2nc(N3CCOCC3)cc(=O)n2c1` [TGX-174], the IC50 came to 100 nM.

Compound `O=c1cc(N2CCOCC2)oc2c(Cc3ccccc3)cccc12` [TGX-90, 2-morpholinyl-8-(phenylmethyl)-4H-1-benzopyran-4-one] registered an IC50 of 100 nM.

Consider `Cc1cc(Oc2cccc3c(=O)cc(N4CCOCC4)oc23)ccc1F` [TGX-173, 8-(4-fluoro-3-methylphenyl)oxy-2-morpholinyl-4H-1-benzopyran-4-one], for which it took 100 nM to reach half-maximal inhibition (IC50).

`Cc1cc(Nc2ccc(O)cc2)c2nc(N3CCOCC3)cc(=O)n2c1` [TGX-101] showed an IC50 of 100 nM.

Compound `O=c1cc(N2CCOCC2)[nH]c2c(Oc3ccccc3F)cccc12` [TGX-143] came in with an IC50 of 150 nM.

In the case of `O=c1cc(N2CCOCC2)[nH]c2c(Sc3ccccc3)cccc12` [TGX-111], the IC50 was 50 nM.

`Cc1cc(NCc2ccccc2Cl)c2nc(N3CCOCC3)cc(=O)n2c1` [TGX-167]: it took 50 nM to reach half-maximal inhibition (IC50).

In the case of `O=c1cc(N2CCOCC2)oc2c(OCc3ccccc3)cccc12` [TGX-102], the IC50 worked out at 100 nM.

In turn, `Cc1cc(NCc2ccccc2)c2nc(N3CCOCC3)cc(=O)n2c1` [TGX-126] came in with an IC50 of 50 nM.

On to `Cc1cccc(Oc2cccc3c(=O)cc(N4CCOCC4)[nH]c23)c1` [TGX-127], for which the IC50 was found to be 50 nM.

As for `O=c1cc(N2CCOCC2)oc2c(Oc3ccccc3)cccc12` [TGX-134, 2-(4-morpholinyl)-8-phenoxy-4H-1-benzopyran-4-one], the IC50 was determined as 100 nM.

The compound `Cc1ccccc1Oc1cccc2c(=O)cc(N3CCOCC3)[nH]c12` [TGX-115, 8-(2′-Methylphenoxy)-2-morpholino-4-quinoline] returned an IC50 of 50 nM.

The compound `O=c1cc(N2CCOCC2)[nH]c2c(Oc3ccc(F)cc3)cccc12` [TGX-121] yielded an IC50 of 50 nM.

In turn, `COC(=O)c1cccc(Oc2cccc3c(=O)cc(N4CCOCC4)[nH]c23)c1` [TGX-149] registered an IC50 of 500 nM.

The compound `Cc1cc(Nc2ccccc2OCCN(C)C)c2nc(N3CCOCC3)cc(=O)n2c1` [TGX-162] showed an IC50 of 2000 nM.

Turning to `Cc1cc(N[C@H](C)c2ccccc2)c2nc(N3CCOCC3)cc(=O)n2c1` [TGX-123], the IC50 stood at 200 nM.

In turn, `Cc1c(Oc2ccccc2)ccc2c(=O)cc(N3CCOCC3)oc12` [TGX-159] displayed an IC50 of 10000 nM.

`Cc1cc(Nc2ccc(F)cc2C)c2nc(N3CCOCC3)cc(=O)n2c1` [TGX-170] registered an IC50 of 200 nM.

For `O=c1cc(N2CCOCC2)oc2c(O)cccc12` [TGX-125], the IC50 turned out to be 25000 nM.

Regarding `Cc1cc(NCc2ccncc2)c2nc(N3CCOCC3)cc(=O)n2c1` [TGX-112], half-maximal inhibition (IC50) required 500 nM.

For `Cc1cc(Nc2ncccc2C)c2nc(N3CCOCC3)cc(=O)n2c1` [TGX-179], the IC50 was 10000 nM.

In the case of `O=c1cc(N2CCOCC2)oc2c(-c3ccccc3C(F)(F)F)cccc12` [TGX-135, 2-morpholinyl-8-(2-trifluoromethylphenyl)-4H-1benzopyran-4-one], the IC50 amounted to 200 nM.

`O=c1cc(N2CCOCC2)oc2cc(/C=C/c3ccccc3)ccc12` [TGX-118]: the IC50 was 10000 nM.

In the case of `COc1ccccc1CNc1cc(C)cn2c(=O)cc(N3CCOCC3)nc12` [TGX-137], the IC50 was determined as 50 nM.

In the case of `Cc1cc(Cl)ccc1Oc1cccc2c(=O)cc(N3CCOCC3)[nH]c12` [TGX-180], half-maximal inhibition (IC50) required 1000 nM.

A further assay concerns the target PI3K α/β isoforms. Put plainly: In vitro enzyme assay PI3K α/β. Type of assay: biochemical. As to conditions: immunoprecipitated from platelet lysate. The procedure:
(§1) In vitro enzyme assays were conducted as a primary screen to determine drug candidate isoform affinity and specificity.
(§2) The α and β isoforms of the PI3K were immunoprecipitated from a platelet lysate using an antibody that recognised the p85 regulatory subunit common to both forms of the enzyme. The γ isoform was produced as a recombinant protein in the Thrombogenix laboratories. […] Standard phosphorylation assays using phosphatidylinositol and ^32P were used to measure the enzyme activity in the immunoprecipates in the presence or absence of an inhibitor. Enzyme activity was determined over a range of inhibitor concentrations to establish an IC50 value.
As to `Cc1cc(Nc2ccc(O)cc2C)c2nc(N3CCOCC3)cc(=O)n2c1` [TGX-174], half-maximal inhibition (IC50) was put at 100 nM.

Compound `O=c1cc(N2CCOCC2)oc2c(Cc3ccccc3)cccc12` [TGX-90, 2-morpholinyl-8-(phenylmethyl)-4H-1-benzopyran-4-one] showed an IC50 of 100 nM.

`Cc1cc(Oc2cccc3c(=O)cc(N4CCOCC4)oc23)ccc1F` [TGX-173, 8-(4-fluoro-3-methylphenyl)oxy-2-morpholinyl-4H-1-benzopyran-4-one] returned an IC50 of 150 nM.

In turn, `Cc1cc(Nc2ccc(O)cc2)c2nc(N3CCOCC3)cc(=O)n2c1` [TGX-101] showed an IC50 of 100 nM.

For the compound `O=c1cc(N2CCOCC2)[nH]c2c(Oc3ccccc3F)cccc12` [TGX-143], the IC50 came out at 150 nM.

In turn, `O=c1cc(N2CCOCC2)[nH]c2c(Sc3ccccc3)cccc12` [TGX-111] registered an IC50 of 50 nM.

Regarding `Cc1cc(NCc2ccccc2Cl)c2nc(N3CCOCC3)cc(=O)n2c1` [TGX-167], it took 50 nM to reach half-maximal inhibition (IC50).

With `O=c1cc(N2CCOCC2)oc2c(OCc3ccccc3)cccc12` [TGX-102], half-maximal inhibition (IC50) was put at 100 nM.

The compound `Cc1cc(NCc2ccccc2)c2nc(N3CCOCC3)cc(=O)n2c1` [TGX-126] yielded an IC50 of 50 nM.

The compound `Cc1cccc(Oc2cccc3c(=O)cc(N4CCOCC4)[nH]c23)c1` [TGX-127] showed an IC50 of 50 nM.

The compound `O=c1cc(N2CCOCC2)oc2c(Oc3ccccc3)cccc12` [TGX-134, 2-(4-morpholinyl)-8-phenoxy-4H-1-benzopyran-4-one] showed an IC50 of 100 nM.

Regarding `Cc1ccccc1Oc1cccc2c(=O)cc(N3CCOCC3)[nH]c12` [TGX-115, 8-(2′-Methylphenoxy)-2-morpholino-4-quinoline], the IC50 turned out to be 50 nM.

Turning to `O=c1cc(N2CCOCC2)[nH]c2c(Oc3ccc(F)cc3)cccc12` [TGX-121], the IC50 was 50 nM.

Consider `Cc1cc(CNc2ccccc2)c2nc(N3CCOCC3)cc(=O)n2c1` [TGX-183, 6-methyl-8-phenylaminomethyl-2-morpholinyl-4H-pyrido[1,2]pyrimidin-4-one], for which the IC50 was determined as 50 nM.

In turn, `COc1ccccc1CNc1cc(C)cn2c(=O)cc(N3CCOCC3)nc12` [TGX-137] displayed an IC50 of 50 nM.

The next assay addresses T1, PI3K γ (Homo sapiens, UniProt P48736).
T1 construct: made in house
Kind of assay: In vitro enzyme assay PI3K γ (recombinant). The class given is biochemical. As to conditions: recombinant γ isoform. The procedure: as §1, §2
As to `Cc1cc(Nc2ccc(O)cc2C)c2nc(N3CCOCC3)cc(=O)n2c1` [TGX-174], the IC50 worked out at 5000 nM.

For `O=c1cc(N2CCOCC2)oc2c(Cc3ccccc3)cccc12` [TGX-90, 2-morpholinyl-8-(phenylmethyl)-4H-1-benzopyran-4-one], the IC50 is 3000 nM.

Take `Cc1cc(Nc2ccc(O)cc2)c2nc(N3CCOCC3)cc(=O)n2c1` [TGX-101]: the IC50 was 2000 nM.

Consider `O=c1cc(N2CCOCC2)[nH]c2c(Oc3ccccc3F)cccc12` [TGX-143], for which the IC50 came out at 2000 nM.

Turning to `O=c1cc(N2CCOCC2)[nH]c2c(Sc3ccccc3)cccc12` [TGX-111], the IC50 is over 10000 nM.

With `Cc1cc(NCc2ccccc2Cl)c2nc(N3CCOCC3)cc(=O)n2c1` [TGX-167], the IC50 is 5000 to 10000 nM.

On to `O=c1cc(N2CCOCC2)oc2c(OCc3ccccc3)cccc12` [TGX-102], for which the IC50 came out at 2000 nM.

Consider `Cc1cc(NCc2ccccc2)c2nc(N3CCOCC3)cc(=O)n2c1` [TGX-126], for which the IC50 is over 10000 nM.

Regarding `Cc1cccc(Oc2cccc3c(=O)cc(N4CCOCC4)[nH]c23)c1` [TGX-127], the IC50 is 5000 to 10000 nM.

As for `O=c1cc(N2CCOCC2)oc2c(Oc3ccccc3)cccc12` [TGX-134, 2-(4-morpholinyl)-8-phenoxy-4H-1-benzopyran-4-one], the IC50 was found to be 200 nM.

For `Cc1ccccc1Oc1cccc2c(=O)cc(N3CCOCC3)[nH]c12` [TGX-115, 8-(2′-Methylphenoxy)-2-morpholino-4-quinoline], the IC50 was found to be 5000 nM.

Consider `O=c1cc(N2CCOCC2)[nH]c2c(Oc3ccc(F)cc3)cccc12` [TGX-121], for which the IC50 was determined as 5000 nM.

With `COc1ccccc1CNc1cc(C)cn2c(=O)cc(N3CCOCC3)nc12` [TGX-137], the IC50 was found to be 5000 nM.

The test system of a further assay is K562 (leukaemia derived) and U937 (moncytic) cell lines. Kind of assay: Cell proliferation assay. As to conditions: 20 μM, 4 day incubation. Type of assay: cell-based. On the procedure:
The anti-proliferative activity of the compounds of this invention from all three chemical classes was determined using K562 (leukaemia derived) and U937 (moncytic) cell lines. The cytotoxic activity of the compounds was monitored over four days by counting cell number and determining cell viability using a colourimetric assay metabolic activity.
For `Cc1cc(NCc2ccccc2Cl)c2nc(N3CCOCC3)cc(=O)n2c1` [TGX-167], the “% Cells remaining” value came to 1.5%.

Take `Cc1cc(N[C@H](C)c2ccccc2)c2nc(N3CCOCC3)cc(=O)n2c1` [TGX-123]: the “% Cells remaining” value is 10%.

Regarding `Cc1cc(CNc2ccc(F)cc2C)c2nc(N3CCOCC3)cc(=O)n2c1` [TGX-186], the “% Cells remaining” value is on record as 1.5%.

The values above are taken from patent US7405211B2, “Therapeutic morpholino-substituted compounds” (AstraZeneca AB, priority 2000, dated 2008).
